Consider seven molecules from patent publication US8003136B2, “Standardization of botanical products utilizing biological activity as a marker” (priority 2004, dated 2011).

For series [1], the system named is Human gastric adenocarcinoma (AGS) cells. In words: growth reduction of AGS cells. It is filed as cell-based. The text has this:
Hydrastis leaf extract produced activity slightly less than the control or root extract but contained one fifth of the berberine indicating synergistic and/or additive compounds exist in the leaf. Antineoplastic—Cancer Cell Cultures. This assay measures the ability of Hydrastis to stimulate or arrest metabolic activity of tumor cells. Human gastric adenocarcinoma (AGS), CaCo2 colon cancer cells and normal colon epithelial tissue (ATCC) will be grown in Petri plates on Dulbecco's Modified Eagle Medium (DME) with 4 mM L-glutamine, 4.5 g/l glucose and 10% fetal bovine serum. CRL 7368 Breast Cancer cells and CRL 7367 Fibroblast control cells will be grown in Petri plates on DME with 4 mM L-glutamine, 4.5 g/l glucose, 1.5 g/l sodium bicarbonate and 10% fetal bovine serum. A 95% confluent layer of healthy cells will be divided as follows: surface media will be poured from the plates so that the cells are not dislodged. Ten milliliters of sterile phosphate-buffered saline (PBS) will be added to the plates to rinse the cell layer and then discarded. […] Cellular release by the trypsin is indicated when the cell layer moves when the plate is tilted. Dislodged cells will be added to 15 ml sterile tubes containing 1 ml calf serum. […] The cellular pellet is suspended in 5 ml of medium by mixing. A cell suspension aliquot (0.1 ml) is added to 0.9 ml of 0.4% Trypan Blue and mixed. Cell counts will be made using a hemocytometer charged with the cell suspension. Aliquots of the cell suspension (based on cell count) will be added to Petri plates, then 15 ml of media will be added and the plates incubated at 37° C. in a CO2 incubator. Cells will be checked daily for contamination and morphology. Media will be replaced every 2 to 3 days with fresh medium. The Cell Titer 96® AQueous Non-radioactive Cell proliferation Assay manufactured by Promega, is a colorimetric method used to measure dehydrogenase activity found in metabolically active cells. The MTS is reduced to formazan in the presence of metabolically active cells and the absorbance of formazan is measured spectrophotometrically. Two days post subculture, cells will be rinsed twice with respective media, harvested, and the cell concentration adjusted to 1×10^5 cells/ml. Fifty μl of the cell suspension will be added to the individual wells of a 96-well microtiter plate. Each well will contain 50 μl of the test sample (extract) or standard reference drug. Plates will be incubated for 48 to 72 hr at 37° C. in a CO2 incubator. After incubation, 20 μl of MTS/PMS solution will be added, and the plates incubated for an additional 1 to 4 hr. At the end of the incubation period, absorbance will be recorded at 490 nm.

The subject of a further series is SA-K2068. In words: MIC against Staph. strain SA-K2068 (MDR efflux pump distinct from NorA). It is filed as cell-based. The source says:
(§1) Additional preliminary data regarding the potential synergistic activity of Hydrastis leaf on two Staph. strains SA-1199B and SA-K2068 was developed using Hydrastis extracts. […]

The subject of another series is SA-1199B. In words: MIC against Staph. strain SA-1199B (over expresses NorA MDR efflux protein). It is filed as cell-based.
From the text: as §1

Series [2] relates to COX-2 transcriptional activity in human colon cancer cells. The conditions noted are these: dose- and time-dependent; cited from earlier work.
A further series deals with E. coli strain ORN178. Description: MIC and MBC against E. coli strain ORN178. The format is cell-based. The conditions noted are these: for concentration determined to be non-inhibitory (up to): inhibitor alone. Here is the method: Minimum inhibition concentration (MIC) will be tested in appropriate liquid media in 96-well microtiter plates. Each well contains 5×10^5 CFU/ml of test bacteria, serially diluted extracts and medium. In some cases when chemical solvents are used, it will be tested simultaneously with the test compounds to ensure the absence of antimicrobial activity. Triplicate samples are to be performed.
After 10 min at 37° C., the treated bacterial (or fungal) culture will be diluted and viable colony counts determined. The ability of goldenseal extract in killing test organisms will be elucidated.
Antimicrobial Characteristics of Goldenseal: Antimicrobial activities of SHF NOP certified Hydrastis were evaluated and compared to that of pure chemical berberine sulfate and berberine chloride. […] The synergistic effects of berberine with the known MDR pump inhibitor (reserpine and orthovanadate) as well as Hydrastis root extracts with leaf extracts were also determined. Please refer to the Materials and Methods section for detailed protocol. All extracts were lyophilized and reconstituted in H2O.

Series [3] has as its system 15 strains of Helicobacter pylori. The conditions noted are these: Mahady, 2003; cited from earlier work.
Series [4] relates to human gastric carcinoma SNU-5 cells. The conditions noted are these: SNU-5 cell line; cited from earlier work.
Another series deals with hepatoma HepG2 cells. The conditions noted are these: cited from earlier work.
Another series concerns transplanted B16 line. The conditions noted are these: day 16, doses of 5 and 10 mg/kg; cited from earlier work.
The conditions of series [5]: in 2.5 hrs; cited from earlier work.
Series [6] relates to HT-1080 (human fibrosarcoma). The conditions noted are these: cited from earlier work.
Series [7] has as its system CaCo2, a colon epithelial cell line. Description: MTS cell proliferation assay, CaCo2. The format is cell-based. On the procedure:
Another study at Clemson examined the anti-tumor properties of berberine when combined with pump inhibitory characteristics of leaf extracts from Hydrastis. […] Anti-tumor properties block uncontrolled growth, while pump inhibitory properties aid in lowering the dosage of drugs needed to treat the patient.
MTS assay was used to measure cell proliferation.
The MTS is reduced to formazan in the presence of metabolically active cells and the absorbance of formazan is measured spectrophotometrically. Two days post subculture, cells will be rinsed twice with respective media, harvested, and the cell concentration adjusted to 1×10^5 cells/ml. Fifty μl of the cell suspension will be added to the individual wells of a 96-well microtiter plate. Each well will contain 50 μl of the test sample (extract) or standard reference drug. Plates will be incubated for 48 to 72 hr at 37° C. in a CO2 incubator. After incubation, 20 μl of MTS/PMS solution will be added, and the plates incubated for an additional 1 to 4 hr. At the end of the incubation period, absorbance will be recorded at 490 nm.
For orientation: Formazan colour is commonly taken as a measure of viable cells.

The test system of a further series is murine leukemia L1210. The conditions noted are these: cited from earlier work.
In series [8] the test system is McF7, a breast epithelial cell line. Description: MTS cell proliferation assay, McF7. It is filed as cell-based. The text has this:
Another study at Clemson examined the anti-tumor properties of berberine when combined with pump inhibitory characteristics of leaf extracts from Hydrastis. This combination inhibited proliferation of both CaCo2, a colon epithelial cell line, and McF7, a breast epithelial cell line. […] Anti-tumor properties block uncontrolled growth, while pump inhibitory properties aid in lowering the dosage of drugs needed to treat the patient. MTS assay was used to measure cell proliferation. Cell proliferation of McF7 was reduced to 45% of the control when treated with 2% of berberine. […] However, a synergetic effect was observed when combining 0.5% berberine with 1.5% leaf extract. Proliferation of McF7 was reduced to 59% compared to the untreated cells. The Cell Titer 96® AQueous Non-radioactive Cell proliferation Assay manufactured by Promega, is a colorimetric method used to measure dehydrogenase activity found in metabolically active cells. The MTS is reduced to formazan in the presence of metabolically active cells and the absorbance of formazan is measured spectrophotometrically. Two days post subculture, cells will be rinsed twice with respective media, harvested, and the cell concentration adjusted to 1×10^5 cells/ml. Fifty μl of the cell suspension will be added to the individual wells of a 96-well microtiter plate. […] At the end of the incubation period, absorbance will be recorded at 490 nm.

The subject of another series is human tumour HeLa. The conditions noted are these: cited from earlier work.
The conditions of series [9]: hyperlipidemic hamsters; cited from earlier work.
A further series deals with Giardiasis. The conditions noted are these: berberine 10 mg/kg/day for 10 days; metronidazole 20 mg/kg/day for 5-7 days; cited from earlier work.
Series [10] relates to SNU-638 (human stomach adenocarcinoma). The conditions noted are these: cited from earlier work.
In series [11] the test system is Chang (normal) liver cells. The conditions noted are these: cited from earlier work.
The test system of the next series is Streptococcus mutans. The conditions noted are these: Hwang (2003); cited from earlier work.
The subject of series [12] is Bifidobacterium adolescentis, Lactobacillus acidophilus, and Lactobacillus casei. The conditions noted are these: cited from earlier work.
Another series deals with Giardia. The conditions noted are these: three divided doses for 6 days; berberine 5 mg/kg/day, metronidazole 10 mg/kg/day; cited from earlier work.
For series [13] the following is noted: oral, 32 patients, 3 months; cited from earlier work.
The mark [14] stands for this setting: 10 μg/ml of reserpine or 2 mM of orthovanadate supplemented.

Broadly, the MIC50 is an inhibitory concentration at the 50% level, which refers to growth in some studies and to a panel of isolates in others. Usually IC50 stands for the point on the concentration scale where inhibition reaches its midpoint.

Values after ≈ are worked out from the molar mass of the structure shown. Where two headings read alike, the source gives them in different places.

As to `COc1ccc2cc3[n+](cc2c1OC)CCc1cc2c(cc1-3)OCO2` [Berberine chloride], the “% growth reduction of AGS cells” value was “.7%” in [1] (first volume column, unit μl, berberine chloride control 500 μg/ml); 2.6% in series [1] (fourth volume column, unit μl); 4.2% in series [1] (head printed '0 μl'); 2.1% in series [1] (head printed '6 μl'); “.5%” in series [1] (second volume column, unit μl); 3.7% in [1] (third volume column, unit μl).
For the molecule `O=C(O)c1cn(C2CC2)c2cc(N3CCNCC3)c(F)cc2c1=O` [Ciprofloxacin], the MIC in the series with SA-K2068 (read-out: SA K2068 MIC, +312.5 μg/mL leaf ext.) amounted to 0.5 µg/mL; in the series on SA-K2068 (read-out: SA K2068 MIC, +625 μg/mL leaf ext.), 0.5 µg/mL; with SA-K2068 (read-out: SA K2068 MIC, +5~20 μg/mL Reserpine) it was 0.5 µg/mL; with SA-K2068 (read-out: SA K2068 MIC, agent alone) it was 4 µg/mL; in the series with SA-1199B (+312.5 μg/mL leaf ext.) it was 2 µg/mL; with SA-1199B (+625 μg/mL leaf ext.), 2 µg/mL. Further, the figures for the MIC in the series on SA-1199B (+1250 μg/mL leaf ext.), with SA-1199B (+5~20 μg/mL Reserpine) and with SA-1199B (agent alone) were less than 0.5 µg/mL, 1 µg/mL and 8 µg/mL, respectively.
Consider `COc1ccc2cc3[n+](cc2c1OC)CCc1cc2c(cc1-3)OCO2` [berberine], for which the “concentrations that inhibit COX-2 transcriptional activity” value in series [2] was “higher than 0.3 microM”. Moreover, in the series with E. coli strain ORN178 (setting [14]), the “MBC of berberine reduced to” value is “¼”. Also, the “MIC of berberine reduced by” value with E. coli strain ORN178 (setting [14]) is recorded as “half”. Further, the MBC in the series with E. coli strain ORN178 (Escherichia coli, ORN178, berberine alone, read-out: MBC (μg/ml berberine)) is 125 µg/mL. Moreover, in the series on E. coli strain ORN178 (Escherichia coli, ORN178, berberine alone, read-out: MIC (μg/ml berberine)), the MIC stood at 62.5 µg/mL. Besides, in series [3], the MIC50 is 12.5 µg/mL. Further, the IC50 in series [4] is 48 µM; in [6], 3.2 µg/mL; in the series on murine leukemia L1210 (Jantova, 2003), “less than 4 microg mL(−1)”; in the series on murine leukemia L1210 (Kettman, 2004), “less than 4 microg/ml”; with human tumour HeLa (Jantova, 2003) it was “less than 4 microg mL(−1)”; with human tumour HeLa (Kettman, 2004) it was “less than 4 microg/ml”. Also, the IC50 in [10] was 3.4 µg/mL. Also, the cytotoxicity entry with hepatoma HepG2 cells is reported as “significant cytotoxicity”; in series [11], “ineffective”. For the same molecule, the tumor volume result with transplanted B16 line is “significant reduction”. The “absorbed in the intestine” value in series [5] is on record as “less than 5%”. In addition, in [7] (combination of 0.5% berberine and 0.5% leaf extract), the “cell proliferation rate, CaCo2” value is 48%. In [7] (treated with 0.5%), the “cell proliferation, CaCo2” value is recorded as 75%. Besides, in series [8] (0.5% berberine combined with 1.5% leaf extract), the “Proliferation of McF7 compared to the untreated cells” value is on record as 59%. Besides, in series [8] (treated at a concentration of 2%), the “Cell proliferation of McF7, % of the control” value was determined as 45%. The “increase in hepatic LDLR mRNA” value in series [9] is 3.5 fold. Also, the “increase in hepatic LDLR protein” value in [9] was 2.6 fold. Besides, the results for the “reduction of LDL-cholesterol” value in [9] and in [13] were 42% and 25%, respectively. For the same molecule, the “reduction of serum cholesterol” value in series [9] was 40%; in series [13] it was 29%. Moreover, in the series on Giardiasis, the “negative stool specimens after 10 days” value was “Ninety”. The “remained negative one month later” value in the series with Giardiasis is listed as 83%. In the series on Streptococcus mutans, the “Minimum Inhibitory Concentration (MIC)” value was 125 µg/mL. For the same molecule, the “inhibition of "friendly" bacteria” value in series [12] was “weak or no inhibition”. The “subjects Giardia-free upon stool analysis” value in the series on Giardia is recorded as 68%. Moreover, the “subjects asymptomatic / resolution of symptoms” value in the series with Giardia was 48%. Moreover, in [13], the reduction of triglycerides is reported as 35%.
With `COc1ccc2c(c1OC)C(=O)O[C@@H]2[C@H]1c2cc3c(cc2CCN1C)OCO3` [beta-hydrastine], in series [3], the MIC50 is 100.0 µg/mL (≈ 261 µM).
Turning to `Cc1ncc([N+](=O)[O-])n1CCO` [metronidazole], in the series with Giardiasis, the “negative stool specimens after 10 days” value was 95% and the “remained negative one month later” value is listed as 90%. In the series on Giardia, the “subjects Giardia-free upon stool analysis” value is “All” and the “subjects asymptomatic / resolution of symptoms” value is recorded as 33%.
In the case of `[O]=[V]([O-])([O-])[O-]` [orthovanadate], the “concentration determined to be non-inhibitory (up to)” value in the series on E. coli strain ORN178 is given as not above 4 mM.
The same measure, in the same setting: for `COC(=O)[C@H]1[C@H]2C[C@@H]3c4[nH]c5cc(OC)ccc5c4CCN3C[C@H]2C[C@@H](OC(=O)c2cc(OC)c(OC)c(OC)c2)[C@@H]1OC` [reserpine] the value was “Up to 5000 μg/ml”.
